# Measured values as given in PubChem BioAssay (NCI).
#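 Test compounds were applied to cells in 96-well plates for 48 hours at 5 doses. Abbreviation: GI50, concentration required for 50% inhibition of growth. TGI marks complete inhibition of growth.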
# Assays:
# Assay in all cases: inhibition of tumour cell growth, NCI panel, 48 h
# SK-OV-3 ovarian = test system: SK-OV-3 ovarian
# CAKI-1 renal = test system: CAKI-1 renal
# SN12C renal = test system: SN12C renal
# U251 CNS = test system: U251 CNS
# NCI-H460 lung = test system: NCI-H460 lung
# HCC-2998 colon = test system: HCC-2998 colon
# SNB-19 CNS = test system: SNB-19 CNS
# SNB-75 CNS = test system: SNB-75 CNS
# MDA-MB-231 breast = test system: MDA-MB-231 breast
# DU-145 prostate = test system: DU-145 prostate
Structure (SMILES),TGI (SK-OV-3 ovarian) [µM],TGI (CAKI-1 renal) [µM],TGI (SN12C renal) [µM],TGI (U251 CNS) [µM],TGI (NCI-H460 lung) [µM],TGI (HCC-2998 colon) [µM],TGI (SNB-19 CNS) [µM],TGI (SNB-75 CNS) [µM],GI50 (SK-OV-3 ovarian) [µM],GI50 (SN12C renal) [µM],GI50 (U251 CNS) [µM],GI50 (NCI-H460 lung) [µM],GI50 (HCC-2998 colon) [µM],GI50 (MDA-MB-231 breast) [µM],TGI (MDA-MB-231 breast) [µM],GI50 (SNB-19 CNS) [µM],GI50 (SNB-75 CNS) [µM],GI50 (DU-145 prostate) [µM],TGI (DU-145 prostate) [µM]
CCOC(=O)CC1=NC(=Nc2cc(Cl)ccc2Cl)SC1,> 100,> 100,> 100,> 100,> 100,> 100,> 100,> 100,,,,,,,,,,,
CCOC(=O)C1=C(NC(C)(C)C)OCC1=O,> 100,> 100,> 100,> 100,> 100,> 100,> 100,> 100,,,,,,,,,,,
COc1ccc(CCNCc2cccc(OC)c2OC)cc1OC,> 100,> 100,> 100,,> 100,> 100,> 100,> 100,,,,,,,,,,,
CCN(CC)CCCCCOc1cc(O)c2c(=O)cc(-c3ccccc3)oc2c1,17.8,,17,11.8,5.48,2.35,21.3,25.6,6.95,4.78,3.16,2.24,0.386,1.49,4.34,6.76,13,4.61,17.4
O=C(N/C(=C\c1ccc(Br)cc1)c1nc2ccccc2s1)c1ccccc1,> 100,> 100,> 100,> 100,> 100,,> 100,> 100,,,,,,,,,,,
COC(=O)C1=C(c2cc(OC)c(OC)c(OC)c2)OC(c2cc(OC)c(OC)c(OC)c2)C1COC(C)=O (stereo not drawn),> 100,> 100,> 100,> 100,> 100,> 100,> 100,> 100,,,,,,,,,,,
O=C1OC(c2ccccc2)=N/C1=C\c1c(O)cc(O)cc1O,> 100,> 100,> 100,> 100,,,> 100,> 100,,,,,,,,,,,
COc1ccc(NC(=O)Nc2ccc(Nc3nc(C)cc(Nc4ccc(C)cc4)n3)cc2)cc1,6.59,,3.86,3.21,,3.59,3.45,3,2.46,1.88,1.72,,1.89,0.894,2.46,1.06,1.53,1.16,2.59
O=C(O)c1ccc(N=Nc2cc(S(=O)(=O)O)c3cccnc3c2O)cc1,> 100,> 100,> 100,> 100,> 100,> 100,> 100,> 100,,,,,,,,,,,
CCc1ccccc1-n1c2nc(=O)n(C)c(=O)c-2nc2ccccc21,> 100,49.3,26.6,32.8,20.8,25.6,23.5,28.8,,,,,,,,,,,
CC(=O)OCC(OC(C)=O)C(OC(C)=O)C(OC(C)=O)C(=O)CNn1c(-c2ccccc2)nc2ccc(Br)cc2c1=O (stereo not drawn),> 100,> 100,> 100,> 100,> 100,,> 100,> 100,,,,,,,,,,,
COc1cc(-c2nc(SCC(=O)Nc3ccc(C(C)=O)cc3)[nH]c(=O)c2C#N)cc(OC)c1OC,> 100,,> 100,> 100,> 100,> 100,> 100,> 100,38.6,70.2,55.6,39.1,> 100,38.7,> 100,64,28.5,62.6,> 100
C[C@H]1COC2(c3ccccc3)CCC(=O)N12 (stereo partly drawn),,> 100,> 100,> 100,> 100,,> 100,> 100,,,,,,,,,,,
CC(C)CC(CNC(Cc1ccc(Cl)cc1)C(N)=O)NC(=O)C(Cc1cnc[nH]1)NC(=O)CNC(=O)C(NC(=O)C(C)NC(=O)C(Cc1c[nH]c2ccccc12)NC(=O)C(CCC(=O)O)NC(=O)C(N)Cc1ccccc1)C(C)C (stereo not drawn),> 133,> 133,> 133,> 133,> 133,> 133,> 133,> 133,,,,,,,,,,,
CCCCSCc1nc2nc(Cl)c(Cl)nc2[nH]1,57.2,79.3,53.2,55.6,53.8,,> 100,57.5,,,,,,,79.2,,,,> 100
CN(/N=C/c1ccnc2ccccc12)c1ccc([N+](=O)[O-])cc1[N+](=O)[O-],> 100,> 100,> 100,> 100,> 100,> 100,> 100,40,,,,,,,,,,,
O=C(CCC(=O)N/N=C/c1ccccc1O)N/N=C/c1ccccc1O,37.2,> 100,> 100,> 100,,> 100,> 100,31.7,,,,,,,,,,,
COc1ccc(C2C(c3ccccc3)C(=O)N2c2cc(OC)c(OC)c(OC)c2)cc1I (stereo not drawn),> 100,,> 100,> 100,> 100,> 100,> 100,> 100,0.395,0.523,0.388,0.337,0.567,0.455,> 100,0.59,6.01,0.332,75.4
C[C@@]1(c2ncncc2F)NC(=O)c2cc(-c3cn[nH]c3)ccc21,76,,> 100,> 100,> 100,> 100,> 100,40.3,18.5,26.5,29.4,25,22.9,27.6,89.5,31.9,4.45,28.8,> 100
COc1ccc(/C(Cl)=C(\C=O)c2ccc(Br)cc2)cc1OC,> 100,> 100,> 100,> 100,> 100,> 100,> 100,30,,,,,,,,,,,
COc1cc(OC)c(OC)cc1/C=C1\C=Cc2ccccc21,59.8,,36.7,> 100,38,28.4,,,,,,,,,50.9,,,,> 100
